Test results taken from the supplement of paper PMC10307832.

Key:
Experiment in all cases: relative viability (nuclei count vs DMSO), 5 days (fraction); higher = more cells survive
Tosedostat + Navitoclax = compound: CC(C)C[C@@H](C(=O)N[C@H](C(=O)OC1CCCC1)c1ccccc1)[C@H](O)C(=O)NO [Tosedostat] + CC1(C)CCC(c2ccc(Cl)cc2)=C(CN2CCN(c3ccc(C(=O)NS(=O)(=O)c4ccc(N[C@H](CCN5CCOCC5)CSc5ccccc5)c(S(=O)(=O)C(F)(F)F)c4)cc3)CC2)C1 [Navitoclax] (partner 0.5 µM)
How it was run: (§1)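 Five library-drug doses in √10 steps were combined with a fixed anchor-drug dose, or a single drug was given alone, by pin tool to lung cancer cell lines in 1536-well plates the day after seeding. Nuclei were stained and counted after 5 days. Relative viability is the nuclei count in treated wells over that in vehicle wells, taken as the median of duplicate plates.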

Tosedostat + Phenformin = compound: CC(C)C[C@@H](C(=O)N[C@H](C(=O)OC1CCCC1)c1ccccc1)[C@H](O)C(=O)NO [Tosedostat] + N=C(N)NC(=N)NCCc1ccccc1 [Phenformin] (partner 250 µM)
How it was run: as §1

[1] = compound: CC1=NN=C(O1)C2=NN=C(C=C2)N3CCC(CC3)OC4=C(C=CC(=C4)F)Cl + CCNC(=O)c1noc(-c2cc(C(C)C)c(O)cc2O)c1-c1ccc(CN2CCOCC2)cc1 [Luminespib] (partner 0.01 µM)
How it was run: as §1

[2] = compound: CC1=NN=C(O1)C2=NN=C(C=C2)N3CCC(CC3)OC4=C(C=CC(=C4)F)Cl + Cc1nc(NC(=O)N2CCC[C@H]2C(N)=O)sc1-c1ccnc(C(C)(C)C(F)(F)F)c1 [Alpelisib] (partner 2 µM)
How it was run: as §1

| Cell Line | relative viability (Tosedostat + Navitoclax; first compound 0.02 µM) | relative viability (Tosedostat + Navitoclax; first compound 0.06325 µM) | relative viability (Tosedostat + Navitoclax; first compound 0.2 µM) | relative viability (Tosedostat + Navitoclax; first compound 0.6325 µM) | relative viability (Tosedostat + Navitoclax; first compound 2 µM) | relative viability (Tosedostat + Phenformin; first compound 0.02 µM) | relative viability (Tosedostat + Phenformin; first compound 0.06325 µM) | relative viability (Tosedostat + Phenformin; first compound 0.2 µM) | relative viability (Tosedostat + Phenformin; first compound 0.6325 µM) | relative viability (Tosedostat + Phenformin; first compound 2 µM) | relative viability ([1]; first compound 0.253 µM) | relative viability ([1]; first compound 0.8 µM) | relative viability ([1]; first compound 2.53 µM) | relative viability ([1]; first compound 8 µM) | relative viability ([2]; first compound 0.253 µM) | relative viability ([2]; first compound 0.8 µM) | relative viability ([2]; first compound 2.53 µM) | relative viability ([2]; first compound 8 µM) |
| --- | --- | --- | --- | --- | --- | --- | --- | --- | --- | --- | --- | --- | --- | --- | --- | --- | --- | --- |
| NCI-H441 | 1.01 | 0.477 | 0.421 | 0.576 | 0.339 | 0.861 | 0.833 | 0.569 | 0.61 | 0.713 | 0.295 | 0.32 | 0.245 | 0.282 | 0.826 | 0.674 | 0.542 | 0.532 |
| NCI-H460 | 1.38 | 1.18 | 1.09 | 0.891 | 1.23 | 0.551 | 0.473 | 0.505 | 0.426 | 0.48 | 0.0224 | 0.0328 | 0.0243 | 0.0233 | 0.356 | 0.359 | 0.394 | 0.391 |
| NCI-H520 | 1.19 | 1.3 | 1.14 | 1.08 | 1.4 | 0.391 | 0.593 | 0.585 | 0.712 | 0.782 | 0.207 | 0.217 | 0.199 | 0.2 | 0.864 | 0.846 | 0.953 | 0.88 |
| NCI-H596 | 1.01 | 1.06 | 1.01 | 0.996 | 0.805 | 0.734 | 0.762 | 0.761 | 0.72 | 0.599 | 0.938 | 0.849 | 0.945 | 0.889 |  | 0.535 | 0.444 | 0.391 |
| NCI-H647 | 1.25 | 1.22 | 0.936 | 1.08 | 1.14 | 0.56 | 0.506 | 0.45 | 0.434 | 0.39 | 0.171 | 0.128 | 0.16 | 0.263 | 0.724 | 0.715 | 0.764 | 0.704 |
| NCI-H727 | 0.369 | 0.295 | 0.386 | 0.282 | 0.195 | 0.705 | 0.485 |  | 0.442 | 0.397 | 0.531 |  | 0.6 | 0.629 | 0.569 | 0.58 | 0.593 | 0.471 |
| NCI-H838 | 1.23 | 1.16 | 1.2 | 1.33 | 1.46 | 0.489 | 0.56 | 0.519 | 0.659 | 0.711 | 0.257 | 0.255 | 0.348 | 0.226 | 0.833 | 0.867 | 0.916 | 0.947 |
| NCI-H1355 | 0.766 | 0.795 | 1.05 | 0.979 | 0.803 | 0.43 | 0.445 | 0.457 | 0.38 | 0.377 | 0.538 | 0.582 | 0.601 | 0.623 |  |  | 0.78 | 0.734 |
| NCI-H1395 | 1.06 | 1.19 | 0.905 | 0.917 | 0.886 | 0.418 | 0.424 | 0.419 | 0.41 | 0.446 | 0.431 | 0.725 | 0.678 | 0.82 | 0.962 | 0.897 | 0.995 | 1 |
| NCI-H1437 | 1.13 | 1.09 | 1.15 | 1.09 | 0.99 | 0.28 | 0.28 | 0.295 | 0.332 | 0.299 | 0.654 | 0.6 | 0.598 | 0.546 | 0.696 | 0.63 | 0.804 | 0.591 |
| NCI-H1651 | 1.03 | 0.885 | 1.28 | 1.07 | 1 | 0.324 | 0.328 | 0.293 | 0.267 | 0.306 | 0.738 | 0.749 | 0.685 | 0.692 | 0.821 | 0.78 | 0.777 | 0.75 |
| NCI-H1666 | 0.864 | 0.946 | 0.98 | 1.39 | 1.05 | 0.547 | 0.527 | 0.554 | 0.612 | 0.567 | 0.537 | 0.504 | 0.479 | 0.444 | 0.672 | 0.738 | 0.846 | 0.792 |
| NCI-H1734 | 0.833 | 0.801 | 0.789 | 0.735 | 0.683 | 0.453 | 0.399 | 0.393 | 0.372 | 0.345 | 0.237 | 0.206 | 0.249 | 0.189 | 0.655 | 0.635 | 0.672 | 0.556 |
| NCI-H1755 | 1.05 | 1.05 | 1.01 | 0.931 | 0.958 | 0.599 | 0.574 | 0.571 | 0.602 | 0.406 | 0.376 | 0.337 | 0.354 | 0.418 | 0.713 | 0.697 | 0.709 | 0.671 |
| NCI-H1792 | 0.63 | 0.839 | 0.651 | 0.652 | 0.567 | 0.243 | 0.472 | 0.445 | 0.404 | 0.31 | 0.34 | 0.38 | 0.419 | 0.431 | 0.397 | 0.432 | 0.264 | 0.448 |
| NCI-H1793 | 0.402 | 0.463 | 0.402 | 0.449 | 0.4 | 0.252 | 0.321 | 0.284 | 0.31 | 0.203 | 0.132 | 0.348 | 0.166 | 0.405 | 0.716 | 0.773 | 0.717 | 0.559 |
| NCI-H1915 | 0.801 | 0.775 | 0.783 | 0.743 | 0.711 | 0.374 | 0.366 | 0.365 | 0.35 | 0.358 | 0.615 | 0.393 | 0.503 | 0.312 | 0.506 | 0.391 | 0.437 | 0.31 |
